The source of these data is patent US9155770B2.

Test [1] addresses T1, ERβ (Homo sapiens, UniProt Q92731). Conditions: Example 2.
Test [2] concerns the target T1, ERβ. The experiment in a line: TNF-RE tkLuc repression in U2OS cells with ERβ. Type of test: cell-based. On the set-up: expressed in transfected cells.
The test system of test [3] is TNF-RE tkLuc. The experiment in a line: Effect of antiestrogens on TNF-RE tkLuc (Example 2). Type of test: cell-based, human. Conditions: in contrast to E2.
Test [4] deals with T1, ERβ. In words: ERE-tk-Luc luciferase assay in U2OS cells with ERβ. Also noted: expressed in transfected cells; host or cells: U2OS (human osteosarcoma). Type of test: cell-based. Conditions: competition with the extract.
In test [5] the test system is primary invasive breast cancer. Conditions: women at high risk for breast cancer; cited from earlier work.
In test [6] the test system is estrogen receptor-positive breast cancer. Conditions: five years of therapy; cited from earlier work.

T1 sequence (Q92731 whole entry): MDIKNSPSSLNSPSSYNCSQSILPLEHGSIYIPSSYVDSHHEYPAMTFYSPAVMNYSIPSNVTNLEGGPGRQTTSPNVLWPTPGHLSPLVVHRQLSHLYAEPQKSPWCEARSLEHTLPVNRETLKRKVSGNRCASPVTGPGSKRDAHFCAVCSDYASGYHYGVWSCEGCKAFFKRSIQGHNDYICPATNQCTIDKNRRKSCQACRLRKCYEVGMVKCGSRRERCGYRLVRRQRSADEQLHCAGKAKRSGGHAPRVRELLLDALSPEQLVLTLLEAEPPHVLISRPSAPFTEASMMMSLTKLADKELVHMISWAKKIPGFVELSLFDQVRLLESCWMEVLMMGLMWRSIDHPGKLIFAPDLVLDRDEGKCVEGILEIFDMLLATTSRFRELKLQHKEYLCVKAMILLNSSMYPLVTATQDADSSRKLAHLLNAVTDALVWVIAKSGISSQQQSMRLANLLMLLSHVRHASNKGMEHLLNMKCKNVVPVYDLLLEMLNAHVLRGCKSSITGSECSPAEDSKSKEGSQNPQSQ

In the case of `C[C@]12CC[C@@H]3c4ccc(O)cc4CC[C@H]3[C@@H]1CC[C@@H]2O` [E2, estradiol], the “repression of TNF-α activation of TNF-RE tkLuc with ERβ” value in test [1] is recorded as 60-80%. Further, in test [2], the “repression of TNF-α activation of TNF-RE with ERβ” value is 100%.

As for `C[C@]12CC[C@@H]3c4ccc(O)cc4C[C@@H](CCCCCCCCC[S+]([O-])CCCC(F)(F)C(F)(F)F)[C@H]3[C@@H]1CC[C@@H]2O` (stereo partly drawn) [ICI 182, 780], the “activation of TNF-RE tkLuc” value in test [3] is listed as 2 fold.

On to `O=C(c1ccc(OCCN2CCCCC2)cc1)c1c(-c2ccc(O)cc2)sc2cc(O)ccc12` [raloxifene], for which, in test [4], the “effect of SERM antagonist on extract-stimulated ERE with ERβ (FIG. 6)” value is listed as “inhibited”. The “activation of TNF-RE tkLuc” value in test [3] is recorded as 2 fold.

As for `CC/C(=C(\c1ccccc1)c1ccc(OCCN(C)C)cc1)c1ccccc1` [tamoxifen], in test [5], the “reduction of risk of primary invasive breast cancer” value was 49%. In test [6], the “reduction of mortality from breast cancer” value is recorded as 22% and the “reduction of risk of recurrences” value is 42%. In addition, the “activation of TNF-RE tkLuc” value in test [3] was 2 fold.
